The assay concerns SARS-CoV-2 pseudovirus (VSV-ΔG) entry into ACE2/Furin expressing host cells (Vero-E6). Briefly: microbe, parasite or virus in culture. The assay is classed as cell-based, SARS-CoV-2 pseudovirus / African Green Monkey cells. The note with it: Severe acute respiratory syndrome-related coronavirus, Vero C1008, 20 h, read-out: IC50, inhibition of pseudovirus entry (VSV-ΔG).

Regarding `O=C(Nc1ccc(-c2ccc(C(=O)Nc3cccc4cc(S(=O)(=O)O)ccc34)cc2)cc1)c1ccc([N+](=O)[O-])cc1` [Compound A2, 5-(4′-(4-Nitrobenzamido)biphenyl-4-ylcarboxamido)naphthalene-2-sulfonic acid], the IC50 worked out at 7 µM. With `Nc1c(/N=N/c2ccc(-c3ccc(/N=N/c4cc(S(=O)(=O)O)c5ccccc5c4N)cc3)cc2)cc(S(=O)(=O)O)c2ccccc12` [Congo red], the IC50 was 16 µM.

The values above are taken from patent publication US20230381159A1 (priority 2020, published 2023).
